Series [1] deals with T1, JNK1 (Homo sapiens, UniProt P45983). Kind of series: JNK1 kinase (intrinsic ATPase, Kinase-Glo) assay. It is filed as biochemical. The procedure:
JNK1, JNK2, and JNK3 hydrolyze ATP to ADP without any peptide substrates. This allows a very robust and fast endpoint assay where the remaining concentration of ATP is measured (BMG ClarioStar Plus plate reader) using the Kinase-Glo Assay kit from Promega (V6711). A luminescence signal is measured, which is produced by the catalytic conversion of beetle luciferin to oxyluciferin by luciferase. Potential inhibition of luciferase (i.e., false negatives) is easily detected, because assays without kinase are always included, and less ATP than is present in this control reaction could also indicate an inhibition of luciferase, which can be excluded by a counter screen with only luciferase.
To mitigate violation of the linear initial velocity principle, which is a problem in end-point assays when doing dose-responses, the enzyme concentration was carefully optimized, in a total assay volume of 25 μL. […] The kinase reaction was done for 30 or 60 min at 30° C., and detection of leftover ATP was measured according to Promega's protocol. […] Fractional activities were obtained from normalized data. Non-linear regression (GraphPad Prism7) and a modified Morrison equation for tight binding was used to determine apparent Ki values for inhibitors, assuming no particular mode of inhibition. An orthogonal binding assay (LanthaScreen) was outsourced to ThermoFisher Scientific's SelectScreen Services to determine IC50 values.
(In general: In Kinase-Glo more light means more ATP remaining.)

Series [2] addresses T2, JNK2 (Homo sapiens, UniProt P45984). Kind of series: JNK2 kinase (intrinsic ATPase, Kinase-Glo) assay. The series is classed as biochemical.
Series [3] has as its target T3, JNK3 (Homo sapiens, UniProt P53779). The experiment in a line: JNK3 kinase (intrinsic ATPase, Kinase-Glo) assay. The series is classed as biochemical.
Series [4] addresses T2, JNK2. Kind of series: Promega NanoBRET intracellular target engagement (tracer K10 displacement), JNK2. The series is classed as cell-based. (In BRET a luciferase serves as donor, and the signal depends on an acceptor being close.)
Series [5] deals with T3, JNK3. The experiment in a line: Promega NanoBRET intracellular target engagement (tracer K10 displacement), JNK3. It is filed as cell-based.
Series [6] can be described thus: In vitro metabolism in mouse liver microsomes. Conditions: mouse, microsomes. The procedure:
(§1) The target product profile seeks to deliver JNK inhibitor as a once daily oral administration. To prioritize compounds for further development, in vitro metabolism of several CDD JNK inhibitors were determined to approximate the plasma half-life and the rate of metabolism of the compounds in vivo.
On the technique in general: Liver microsomes are a subcellular fraction often used to study metabolism.

Series [7] in a line: In vitro metabolism in human liver microsomes. The note with it: human, microsomes. The procedure: as §1
Series [8] in a line: Solubility.
Series [9] concerns the target T1, JNK1. Kind of series: Promega NanoBRET intracellular target engagement (tracer K10 displacement), JNK1. The series is classed as cell-based.

In brackets after ≈: the same amount, converted by molar mass. Like-named read-outs stand apart in the source and are kept apart here.

T2 sequence (P45984 whole entry): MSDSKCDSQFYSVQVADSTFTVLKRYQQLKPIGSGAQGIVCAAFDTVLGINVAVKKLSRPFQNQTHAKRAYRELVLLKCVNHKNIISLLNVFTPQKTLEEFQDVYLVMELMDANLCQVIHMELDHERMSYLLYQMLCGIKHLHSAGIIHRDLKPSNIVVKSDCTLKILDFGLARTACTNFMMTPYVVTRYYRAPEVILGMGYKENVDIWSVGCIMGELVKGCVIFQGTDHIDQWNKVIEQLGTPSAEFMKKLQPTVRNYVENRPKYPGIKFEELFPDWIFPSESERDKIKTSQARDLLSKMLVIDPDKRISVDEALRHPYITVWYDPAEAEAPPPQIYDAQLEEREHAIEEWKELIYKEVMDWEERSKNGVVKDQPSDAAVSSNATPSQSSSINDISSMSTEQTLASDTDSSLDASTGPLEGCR
T3 sequence (P53779 whole entry): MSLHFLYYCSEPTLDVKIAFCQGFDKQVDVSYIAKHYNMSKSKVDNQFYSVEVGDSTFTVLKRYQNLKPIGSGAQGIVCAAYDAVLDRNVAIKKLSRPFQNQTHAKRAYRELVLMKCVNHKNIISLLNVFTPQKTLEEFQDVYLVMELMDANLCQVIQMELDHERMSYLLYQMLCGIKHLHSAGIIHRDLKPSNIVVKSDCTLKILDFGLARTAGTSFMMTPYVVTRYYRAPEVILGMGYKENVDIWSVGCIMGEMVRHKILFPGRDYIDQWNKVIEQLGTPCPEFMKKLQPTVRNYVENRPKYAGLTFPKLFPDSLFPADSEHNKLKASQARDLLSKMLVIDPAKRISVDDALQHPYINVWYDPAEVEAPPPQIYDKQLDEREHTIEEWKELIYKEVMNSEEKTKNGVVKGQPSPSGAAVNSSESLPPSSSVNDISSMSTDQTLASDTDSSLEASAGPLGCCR
T1 sequence (P45983 whole entry): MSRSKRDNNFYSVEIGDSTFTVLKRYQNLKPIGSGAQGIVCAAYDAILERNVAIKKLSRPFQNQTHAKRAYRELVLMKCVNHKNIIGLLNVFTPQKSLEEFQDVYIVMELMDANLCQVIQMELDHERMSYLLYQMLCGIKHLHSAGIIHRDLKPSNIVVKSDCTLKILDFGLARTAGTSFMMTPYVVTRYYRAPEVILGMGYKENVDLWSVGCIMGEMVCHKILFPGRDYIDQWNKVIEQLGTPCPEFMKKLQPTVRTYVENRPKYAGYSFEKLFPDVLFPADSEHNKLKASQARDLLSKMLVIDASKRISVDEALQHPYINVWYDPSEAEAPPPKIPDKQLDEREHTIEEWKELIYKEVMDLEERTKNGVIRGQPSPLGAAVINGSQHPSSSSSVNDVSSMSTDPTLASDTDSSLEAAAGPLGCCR

The term Kd denotes a measure of binding affinity in units of concentration. The term IC50 denotes the concentration at which inhibition is half-maximal. A lower IC50 goes with greater potency in that assay. In general, half-life refers to the time in which the quantity being followed falls by half. Read a low half-life as fast loss. Broadly, the solubility is how much of the substance goes into solution per volume. A lower solubility goes with little dissolved substance. As to `CN(C)C(=O)c1cc(NC(=O)c2cc3c(-c4cnc5[nH]ncc5c4)cccc3s2)ccc1O` [CDD-3018, N-(3-(dimethylcarbamoyl)-4-hydroxyphenyl)-4-(1H-pyrazolo[3,4-b]pyridin-5-yl)benzo[b]thiophene-2-carboxamide], the Kd in series [1] was 3.58 ± 0.47 nM; in series [2] (Table 3a, read-out: Kd JNK2), 11.4 ± 1 nM; in [3] (Table 3a, read-out: Kd JNK3) it was 5.17 ± 0.33 nM. The IC50 came out at 10900 nM in series [4] and 31700 nM in series [5]. Further, the half-life was 0.98 h in series [6] and 8.85 h in [7]. The solubility in series [8] is 1.5 µM (≈ 0.686 µg/mL).

As to `O=C(Nc1ccc(O)c(C(=O)N2CCC2)c1)c1cc2c(-c3cnc4[nH]ccc4c3)cccc2s1` [CDD-3014, N-(3-(azetidine-1-carbonyl)-4-hydroxyphenyl)-4-(1H-pyrrolo[2,3-b]pyridin-5-yl)benzo[b]thiophene-2-carboxamide], the Kd was 0.58 ± 0.08 nM in series [1]; 5.74 ± 0.5 nM in [2] (Table 3a, read-out: Kd JNK2); 2.92 ± 0.21 nM in series [3] (Table 3a, read-out: Kd JNK3). For the same molecule, the half-maximal inhibitory concentration (IC50) worked out at 789 nM in [9], 738 nM in series [4] and 960 nM in series [5]. Further, the half-life in series [6] was 1.02 h; in series [7] it was 2.93 h. Besides, the solubility in [8] is 0.4 µM (≈ 0.187 µg/mL).

On to `NC(=O)c1cccc(NC(=O)c2cc3c(-c4cnc5[nH]ccc5c4)cccc3s2)c1` [CDD-2936, N-(3-carbamoylphenyl)-4-(1H-pyrrolo[2,3-b]pyridin-5-yl)benzo[b]thiophene-2-carboxamide], for which the dissociation constant (Kd) came to 1.62 ± 0.31 nM in series [1], 9.09 ± 0.53 nM in series [2] and 3.2 nM in series [3]. Also, the IC50 in series [9] worked out at 702 nM; in series [4] it was 780 nM; in [5], 1140 nM. Moreover, the half-life in series [6] was 1.15 h; in series [7] it was 4.55 h.

In the case of `Cc1ccc(NC(=O)c2cc3c(-c4cnc5[nH]ccc5c4)cccc3s2)cc1C(=O)N(C)C` [CDD-2729, N-(3-(dimethylcarbamoyl)-4-methylphenyl)-4-(1H-pyrrolo[2,3-b]pyridin-5-yl)benzo[b]thiophene-2-carboxamide], the dissociation constant Kd in series [1] came to 1.2 ± 0.16 nM; in series [2] (Table 3a, read-out: Kd JNK2) it was 6.5 ± 0.63 nM; in series [3] (Table 3a, read-out: Kd JNK3), 1.93 ± 0.14 nM. Besides, the IC50 in [9] came out at 1000 nM; in series [4], 1000 nM; in [5] it was 781 nM. Further, the figures for the half-life in series [6] and in series [7] were 0.335 h and 0.918 h, respectively.

As to `Cc1ccc(NC(=O)c2ccn3ncc(-c4cncc5ccccc45)c3c2)cc1` [CDD-2325, 3-(isoquinolin-4-yl)-N-(p-tolyl)pyrazolo[1,5-a]pyridine-5-carboxamide], the Kd stood at 0.28 ± 0.12 nM in [1]; 1.27 ± 0.14 nM in series [2] (Table 3a, read-out: Kd JNK2); 1.18 ± 0.09 nM in series [3] (Table 3a, read-out: Kd JNK3). The IC50 in [9] was 1400 nM; in series [4], 890 nM; in series [5], 1200 nM. The half-life in [6] worked out at 0.517 h; in series [7] it was 0.128 h. Further, in series [8], the solubility is 2.3 µM (≈ 0.87 µg/mL).

On to `CNCc1ccc(NC(=O)c2ccc3ncc(-c4cnc5[nH]ccc5c4)n3c2)cc1` [CDD-2488, N-(4-((methylamino)methyl)phenyl)-3-(1H-pyrrolo[2,3-b]pyridin-5-yl)imidazo[1,2-a]pyridine-6-carboxamide], for which the equilibrium dissociation constant (Kd) was found to be 3.1 ± 0.8 nM in [1]; 3.08 ± 0.16 nM in [2] (Table 3a, read-out: Kd JNK2); 4.34 ± 0.6 nM in series [3] (Table 3a, read-out: Kd JNK3). Further, the results for the 50% inhibitory concentration (IC50) in [9], in series [4] and in series [5] were 66000 nM, 13500 nM and 34800 nM, respectively. In addition, the half-life in series [6] worked out at 2.1 h; in [7] it was 1.99 h. The molecule further gave a solubility in series [8] of 124 µM (≈ 49.2 µg/mL).

Consider `CNC(=O)c1ccn2ncc(-c3cnc4[nH]ccc4c3)c2c1` [CDD-2574, N-methyl-3-(1H-pyrrolo[2,3-b]pyridin-5-yl)pyrazolo[1,5-a]pyridine-5-carboxamide], for which the Kd in [1] is 1.69 ± 0.39 nM; in series [2] (Table 3a, read-out: Kd JNK2) it was 12.5 ± 0.68 nM; in series [3] (Table 3a, read-out: Kd JNK3), 6.56 ± 0.85 nM. Besides, the half-maximal inhibitory concentration (IC50) in series [9] was 7300 nM; in series [4], 5400 nM; in series [5], 5900 nM. Besides, the half-life was 0.125 h in series [6] and 0.608 h in series [7]. The same molecule displayed a solubility in [8] of 11.1 µM (≈ 3.23 µg/mL).

Consider `CN(C)C(=O)c1cc(NC(=O)c2cc3c(-c4cnc5[nH]ccc5c4)cccc3o2)ccc1O` [CDD-2855, N-(3-(dimethylcarbamoyl)-4-hydroxyphenyl)-4-(1H-pyrrolo[2,3-b]pyridin-5-yl)benzofuran-2-carboxamide], for which the equilibrium dissociation constant (Kd) was 1.52 ± 0.15 nM in [1]; 12.2 ± 1.3 nM in [2] (Table 3a, read-out: Kd JNK2); 2.68 ± 0.2 nM in series [3] (Table 3a, read-out: Kd JNK3). Besides, the concentration for half-maximal inhibition (IC50) in series [9] was 4910 nM; in series [4] it was 4200 nM; in series [5], 5300 nM. The half-life in series [6] stood at 1.92 h; in series [7], 3.43 h.

In the case of `CNC(=O)c1ccc(NC(=O)c2ccn3ncc(-c4cnc5[nH]ccc5c4)c3c2)cc1` [CDD-2461, N-(4-(methylcarbamoyl)phenyl)-3-(1H-pyrrolo[2,3-b]pyridin-5-yl)pyrazolo[1,5-a]pyridine-5-carboxamide], the Kd in series [1] was found to be 0.2 ± 0.18 nM; in series [2] (Table 3a, read-out: Kd JNK2), 0.32 ± 0.12 nM; in [3] (Table 3a, read-out: Kd JNK3) it was 0.33 ± 0.03 nM. Further, the values for the half-maximal inhibitory concentration (IC50) in series [9] and in [4] were 49500 nM and 5300 nM, respectively. Further, the results for the half-life in [6] and in [7] were 0.513 h and 1.19 h, respectively. Also, in series [8], the solubility was determined as 1.8 µM (≈ 0.739 µg/mL).

Regarding `CN(C)C(=O)c1cc(O)cc(NC(=O)c2cc3c(-c4cnc5[nH]ccc5c4)cccc3s2)c1` [CDD-2937, N-(3-(dimethylcarbamoyl)-5-hydroxyphenyl)-4-(1H-pyrrolo[2,3-b]pyridin-5-yl)benzo[b]thiophene-2-carboxamide], the equilibrium dissociation constant (Kd) in series [1] was found to be 0.28 ± 0.05 nM; in series [2] (Table 3a, read-out: Kd JNK2) it was 4.53 ± 0.55 nM; in series [3] (Table 3a, read-out: Kd JNK3), 1.67 ± 0.06 nM. Besides, the half-maximal inhibitory concentration (IC50) in [9] came out at 1600 nM; in series [4], 1460 nM; in series [5], 1130 nM. Also, the values for the half-life in [6] and in [7] were 0.967 h and 3.22 h, respectively.

For the molecule `Cc1ccc(NC(=O)c2ccn3ncc(-c4cnc5[nH]ccc5c4)c3c2)cc1` [CDD-2288, 3-(1H-pyrrolo[2,3-b]pyridin-5-yl)-N-(p-tolyl)pyrazolo[1,5-a]pyridine-5-carboxamide], the Kd in [1] was found to be 0.36 ± 0.11 nM; in series [2] (Table 3a, read-out: Kd JNK2) it was 1.63 ± 0.14 nM; in [3] (Table 3a, read-out: Kd JNK3), 1.41 ± 0.07 nM. For the same molecule, the results for the concentration for half-maximal inhibition (IC50) in series [9], in [4] and in series [5] were 830 nM, 900 nM and 1500 nM, respectively. This molecule also had a solubility in [8] of 1 µM (≈ 0.367 µg/mL).

For the molecule `Cc1c[nH]c2ncc(-c3cccc4sc(C(=O)Nc5ccc(O)c(C(=O)N(C)C)c5)cc34)cc12` [CDD-3017, N-(3-(dimethylcarbamoyl)-4-hydroxyphenyl)-4-(3-methyl-1H-pyrrolo[2,3-b]pyridin-5-yl)benzo[b]thiophene-2-carboxamide], the Kd in [1] came to 0.39 ± 0.12 nM; in [2] (Table 3a, read-out: Kd JNK2), 2.23 ± 0.12 nM; in series [3] (Table 3a, read-out: Kd JNK3), 2.7 ± 0.29 nM. Besides, the figures for the IC50 in series [9], in series [4] and in series [5] were 254 nM, 228 nM and 235 nM, respectively. For the same molecule, the half-life was determined as 2.18 h in series [6] and 5.97 h in series [7].

For `CNC(=O)c1cc2c(-c3cnc4[nH]ccc4c3)cccc2s1` [CDD-2627, N-methyl-4-(1H-pyrrolo[2,3-b]pyridin-5-yl)benzo[b]thiophene-2-carboxamide], the Kd in [1] was found to be 3.74 ± 0.93 nM; in series [2] (Table 3a, read-out: Kd JNK2), 14.8 ± 0.95 nM; in series [3] (Table 3a, read-out: Kd JNK3) it was 9 ± 2.4 nM. The half-inhibitory concentration (IC50) in [9] came out at 14800 nM; in [4] it was 6100 nM; in series [5] it was 23000 nM. Besides, the solubility in series [8] amounted to 40.3 µM (≈ 12.4 µg/mL).

In the case of `CNC(=O)c1cc(NC(=O)c2cc3c(-c4cnc5[nH]ccc5c4)cccc3s2)ccc1OC` [CDD-2490, N-(4-methoxy-3-(methylcarbamoyl)phenyl)-4-(1H-pyrrolo[2,3-b]pyridin-5-yl)benzo[b]thiophene-2-carboxamide], the Kd stood at 1.52 ± 0.3 nM in series [1], 5.37 ± 0.42 nM in series [2] and 3.53 nM in [3]. Besides, the values for the IC50 in series [9], in [4] and in series [5] were 6300 nM, 2000 nM and 29300 nM, respectively. This molecule also registered a solubility in series [8] of 0.4 µM (≈ 0.183 µg/mL).

Consider `CNC(=O)CN1[C@H](CC(=O)NCCCN(C)c2ccc(F)cc2)CNC[C@H]1C` [CDD-2272, N-(3-((4-fluorophenyl)(methyl)amino)propyl)-2-((2R,6R)-6-methyl-1-(2-(methylamino)-2-oxoethyl)piperazin-2-yl)acetamide], for which, in [1] (Table 3b, read-out: Ki(app) JNK1), the Ki stood at 860 nM. Further, the 50% inhibitory concentration (IC50) in series [9] came to 60000 nM; in [4], 58000 nM.

For the origin of these results see patent US20260294922A1, “Inhibitors of JUN N-Terminal Kinases (JNK1, JNK2, and/or JNK3) and Mitogen-Activated Protein Kinases (MAPK8, MAPK9, and/or MAPK10) and Methods of Using Same” (Baylor College of Medicine, priority 2023, published 2026).
